# Test results from patent publication US8901314B2, “Substituted pyrazoles as N-type calcium channel blockers” (Janssen Pharmaceutica NV, priority 2012, dated 2014).
# Experiments:
# [1] = tested on: Cav2.2 (N-type calcium channel; α1B, α2δ and β3 subunits stably expressed in HEK293 cells); test: Automated electrophysiology assay (QPatch-HT patch clamp); type: cell-based; details: 0.1 μM; for QPatch % Inhibition, High Freq: high frequency stimulation (15th pulse of 5 Hz train); for QPatch % Inhibition, Low Freq: low frequency stimulation (1st pulse of train)
# Description: The Cav2.2 (α1B) subunit (GenBank accession no. AAO53230; supplied by Lipscombe's laboratory at Brown University) was subcloned into pcDNA3.1, whereas the α2δ (M86621) and β3 (M88751) subunits were subcloned into pBudCE4.1 vectors. Stable cell lines expressing all three subunits were generated according to the following procedure: 1) HEK293 cells were transfected with α2δ−1/β3 expression constructs resulting in a stable cell line expressing α2δ−1 and β3 subunits that were selected under 200 μg/mL of Zeocin; 2) a stable cell line expressing α2δ−1/β3 subunits in high quantity as evidenced in its Western blots was isolated from the colony and purified; 3) this cell line was further transfected with Cav2.2 expression constructs, from which cells were subsequently selected under 400 μg/mL G418 and 200 μg/mL Zeocin; 4) these cells were clonally isolated, expanded and screened by Western blot analysis for expressing all three subunits
# Cultures of cells stably expressing Cav2.2 were maintained at 37° C. in low glucose-containing Dulbecco's Modified Eagle medium (low glucose) under a 5% CO2 atmosphere. The medium was supplemented with 10% fetal bovine serum, 2 mM L-glutamine, 100 IU/mL penicillin, […] streptomycin, 400 μg/mL G418 and 200 μg/mL Zeocin.
# High-throughput automated patch clamp system experiments were carried out using instruments (QPatch-HT) available from Sophion Biosciences, Inc. North Brunswick, N.J. Cells were grown in T175 flasks to 50%-90% confluence were enzymatically treated with Deatchin (Genlantis, San Diego, Calif., U.S.A.), centrifuged, rinsed and resuspended in 293 SFM II media (Life Technologies, Grand Island, N.Y., U.S.A.) supplemented with 25 mM HEPES (Sigma-Aldrich, St. Louis, Mo., U.S.A.) to a concentration of 2−3×10^6 cells/mL. Cells were added to automated cell preparation station on the QPatch-HT (Sophion Biosciences, North Brunswick, N.J., U.S.A.) and following a 10- to 30-min recovery period with gentle stirring, the assay protocol was initiated. During the automated cell preparation, cells were collected, centrifuged and resuspended in an extracellular (EC) solution containing 132 mM NaCl, 1.8 mM CaCl2, 5.4 mM KCl, 0.8 mM MgCl2, 10 mM glucose, and 10 mM HEPES (pH=7.4), adjusted with sucrose to 315 m0sm. The QPlate was primed with an intracellular solution containing 135 CsCl, 10 mM EGTA, 4 MgATP, 0.3 NaGTP, and 20 mM HEPES (pH=7.2), adjusted to approximately 290 m0sm with deionized water and the EC solution. Cells were added to the prepared QPlate wells by robotic pipettes of the QPatch-HT.
# For cells determined to be in stable whole-cell patch clamp, the EC solution was replaced with a barium (Ba)/triethylammonium (TEA) solution containing 140 mM TEA-Cl, 10 mM BaCl2, 0.8 mM MgCl2, 10 mM glucose, and 10 mM HEPES (pH=7.4). High (40 mM) BaCl2 concentrations were made with adjustments of TEA-Cl (90 mM) to maintain the osmolarity. From a resting potential of −80 mV, a train of depolarizing pulses (15 pulses at 5 Hz, +20 mV) was delivered to the cell once every 30 sec for eight trains (4 min total), and the resulting currents were measured during a control period (no compound). This protocol was repeated for each subsequent addition of control buffer with or without compound (three periods total, each with four trains). The current generated in the 1st and 15th pulses of the last train of each period in the presence of each drug concentration was normalized to the current generated during the control period at the respective pulses (representing low- and high frequency stimulation, respectively). Data from both the second and third drug application period were analyzed for each cell. A final addition of Ba/TEA solution containing 60-100 uM CdCl2 was made to block all N-type current and “zero” the currents for each cell. A buffer/compound additions were made using a “spitting” feature of the QPatch-HT, which added three repretitions of 5 μL solution at the beginning of each recording period.
# [2] = molecular target: α1B (Cav2.2), β3 and α2δ subunits of the N-type calcium channel (stable HEK cell line) (Rattus norvegicus, UniProt Q02294); test: Calcium-dye indicator assay (FDSS, KCl depolarization); type: cell-based; details: calcium mobilization response to 50 mM KCl; six-point concentration-response
# Description: A stable cell line (HEK parent) co-expressing the α1B (Cav2.2), β3 and α2δ subunits of the N-type calcium channel subunits was used. These cells were routinely grown as monolayers in low glucose-containing Dulbecco's Modified Eagle Medium supplemented with 10% FBS, 2 mM L-glutamine, 100 I.U./mL penicillin, 100 μg/mL streptomycin, 400 μg/mL G418 and 200 μg/mL Zeocin (split ratio=1:5). Cells were maintained in 5% CO2 at 37° C. Compounds of Formula (I) were prepared as 10 mM stocks in DMSO from neat compound, if available. Otherwise, the 5 or 10 mM DMSO stock solutions provided in-house were used.
# Calcium mobilization responses to KCl depolarization were evaluated by measuring the intensity of calcium-mediated fluorescent signal in the presence of BD Calcium Assay Dye (BD Biosciences, Franklin Lakes, N.J., U.S.A.), utilizing a Functional Drug Screening System (FDSS) by Hamamatsu Corporation (Bridgewater, N.J., U.S.A.).
# Twenty-four hours prior to assay, cells were seeded in clear-base poly-D-lysine coated 384-well plates (BD Biosciences) at a density of 5,000 cells per well in culture medium and grown overnight in 5% CO2 at 37° C. On the day of assay growth media were removed and cells were loaded with BD calcium assay dye (BD Biosciences) for 35 min at 37° C. under 5% CO2 and then for 25 min at room temperature. Utilizing the FDSS, cells were exposed to representative compounds of Formula (I) at varying concentrations and intracellular calcium was measured for 5 min prior to the addition of 50 mM KCl for an additional 3 min of measurement.
# Maximal fluorescence intensity (FI) achieved upon addition of 50 mM KCl was exported from the FDSS software and further analyzed using GraphPad Prism 4 (Graph Pad Software Inc., CA, U.S.A.). Data were normalized to the maximum average counts from quadruplicate wells for each condition in the presence of 50 mM KCl and to the minimum average counts in the presence of buffer. Theoretical curves were generated using nonlinear regression curve-fitting analysis of either sigmoidal concentration-response or sigmoidal concentration-response (variable slope), and the IC50 values with the best-fit dose curve determined by GraphPad Prism were reported.
SMILES,IC50 [2],"QPatch % Inhibition, High Freq [1]","QPatch % Inhibition, Low Freq [1]"
"COc1ccc(-c2cc(C3CC(C)(C)OC(C)(C)C3)nn2-c2ccccc2OC)cn1 [Compound 13, 2-Methoxy-5-[1-(2-methoxyphenyl)-3-(2,2,6,6-tetramethyltetrahydro-2H-pyran-4-yl)-1H-pyrazol-5-yl]pyridine]",4.9 nM,47.5%,32%
"CCOC(=O)c1ccc(-c2cc(C3CC(C)(C)OC(C)(C)C3)nn2-c2ccccc2OC)cc1 [Compound 17, Ethyl 4-[1-(2-methoxyphenyl)-3-(2,2,6,6-tetramethyltetrahydro-2H-pyran-4-yl)-1H-pyrazol-5-yl]benzoate]",5.1 nM,82%,84%
"COc1ccccc1-n1nc(C2CC(C)(C)OC(C)(C)C2)cc1-c1ccc(SC)cc1 [Compound 6, 1-(2-Methoxyphenyl)-5-[4-(methylsulfanyl)phenyl]-3-(2,2,6,6-tetramethyltetrahydro-2H-pyran-4-yl)-1H-pyrazole]",1.1 nM,48%,48%
"COc1ccccc1-n1nc(C2=C[C@H](C)O[C@@H](C)C2)cc1-c1ccc(Cl)cc1 (relative stereo) [Compound 96, 5-(4-Chlorophenyl)-3-[(trans)-2,6-dimethyl-3,6-dihydro-2H-pyran-4-yl]-1-(2-methoxyphenyl)-1H-pyrazole]",8.2 nM,29%,−20%
"COc1ccccc1-n1nc(C2CC(C)(C)OC(C)(C)C2)cc1-c1ccc(C)nc1 [Compound 23, 5-[1-(2-Methoxyphenyl)-3-(2,2,6,6-tetramethyltetrahydro-2H-pyran-4-yl)-1H-pyrazol-5-yl]-2-methylpyridine]",6.2 nM,−8%,−19%
"COc1ccccc1-n1nc(C2C[C@@H](C)O[C@H](C)C2)cc1-c1ccc(Cl)cc1 (relative stereo) [Compound 61, 5-(4-Chlorophenyl)-3-[(trans)-2,6-dimethyltetrahydro-2H-pyran-4-yl]-1-(2-methoxyphenyl)-1H-pyrazole]",1.5 nM,62%,30%
"COc1ccccc1-n1nc([C@H]2CCO[C@@H](C(C)C)C2)cc1-c1ccc(Cl)cc1 (relative stereo) [Compound 64, 5-(4-Chlorophenyl)-1-(2-methoxyphenyl)-3-[(cis)-2-(1-methylethyl)tetrahydro-2H-pyran-4-yl]-1H-pyrazole]",7.2 nM,55%,18%
"COc1ccccc1-n1nc(C2CC(C)(C)OC(C)(C)C2)cc1-c1ccc(N(C)C)nc1 [Compound 31, 5-[1-(2-Methoxyphenyl)-3-(2,2,6,6-tetramethyltetrahydro-2H-pyran-4-yl)-1H-pyrazol-5-yl]-N,N-dimethylpyridin-2-amine]",3.5 nM,1%,4%
"COc1ccccc1-n1nc(C2CC(C)(C)OC(C)(C)C2)cc1-c1ccc(C(C)(C)C)cc1 [Compound 15, 5-(4-tert-Butylphenyl)-1-(2-methoxyphenyl)-3-(2,2,6,6-tetramethyltetrahydro-2H-pyran-4-yl)-1H-pyrazole]",4.9 nM,37%,20%
"CCN(CC)c1ccccc1-n1nc(C2CC(C)(C)OC(C)(C)C2)cc1-c1ccc(Cl)cc1 [Compound 73, 2-[5-(4-Chlorophenyl)-3-(2,2,6,6-tetramethyltetrahydro-2H-pyran-4-yl)-1H-pyrazol-1-yl]-N,N-diethylaniline]",50 nM,1%,−18%

# Further lines, with some results ahead:
IC50 [2],SMILES,"QPatch % Inhibition, High Freq [1]","QPatch % Inhibition, Low Freq [1]"
19 nM,"COc1ccccc1-n1nc(C2CC(C)(C)OC(C)(C)C2)cc1-c1ccc(C(C)O)cc1 (stereo not drawn) [Compound 44, 1-{4-[1-(2-Methoxyphenyl)-3-(2,2,6,6-tetramethyltetrahydro-2H-pyran-4-yl)-1H-pyrazol-5-yl]-phenyl}-ethanol]",6%,20%
12 nM,"COc1ccccc1-n1nc(C2C[C@@H](C)O[C@H](C)C2)cc1-c1ccccc1 (relative stereo) [Compound 67, 3-[(trans)-2,6-Dimethyltetrahydro-2H-pyran-4-yl]-1-(2-methoxyphenyl)-5-phenyl-1H-pyrazole]",65%,55%
7.8 nM,"CC1(C)CC(c2cc(-c3ccc(Cl)cc3)n(-c3ccccc3[N+](=O)[O-])n2)CC(C)(C)O1 [Compound 65, 5-(4-Chlorophenyl)-1-(2-nitrophenyl)-3-(2,2,6,6-tetramethyltetrahydro-2H-pyran-4-yl)-1H-pyrazole]",50%,44%
7 nM,"CNc1ccccc1-n1nc(C2CC(C)(C)OC(C)(C)C2)cc1-c1ccc(Cl)cc1 [Compound 60, 2-[5-(4-Chlorophenyl)-3-(2,2,6,6-tetramethyltetrahydro-2H-pyran-4-yl)-1H-pyrazol-1-yl]-N-methylaniline]",48%,31%
24 nM,"COc1ccccc1-n1nc(C2CC(C)(C)OC(C)(C)C2)c(Br)c1-c1ccc(Cl)cc1 [Compound 70, 4-Bromo-5-(4-chlorophenyl)-1-(2-methoxyphenyl)-3-(2,2,6,6-tetramethyltetrahydro-2H-pyran-4-yl)-1H-pyrazole]",25%,24%
